Earlier results, collected in patent US11602507B2, “Extended release oral composition of memantine or its salt and its process for the preparation” (TRIKONA PHARMACEUTICALS PVT. LTD, priority 2019, dated 2023).

## CC12CC3CC(C)(C1)CC(N)(C3)C2 [Memantine, 1-amino-3,5-dimethyladamantane]
  solubility in water: highly soluble in water
